Test results from ChEMBL document CHEMBL4118148, “Design, synthesis and cardiovascular evaluation of some aminoisopropanoloxy derivatives of xanthone” (Bioorg Med Chem, 2018).

Assays:
Assay type in all cases: functional
Rattus norvegicus [1] = test: Hypotensive activity in normotensive Wistar rat assessed as reduction in diastolic blood pressure at 0.5 mg/kg, iv measured over 30 mins relative to control; set-up: scale not given: the % may be the effect or the level left
Rattus norvegicus [2] = test: Hypotensive activity in normotensive Wistar rat assessed as systolic blood pressure at 0.5 mg/kg, iv measured after 60 mins (reference value: 147.7 +/- 5.9 mmHg)
Rattus norvegicus [3] = test: Hypotensive activity in normotensive Wistar rat assessed as systolic blood pressure at 0.5 mg/kg, iv measured after 10 mins (reference value: 116 +/- 4.6 mmHg)
Rattus norvegicus [4] = test: Hypotensive activity in normotensive Wistar rat assessed as systolic blood pressure at 0.5 mg/kg, iv measured after 30 mins (reference value: 116 +/- 4.6 mmHg)

With `Cl.O=c1c2ccccc2oc2c(OCC(O)CN3CCN(c4ccccn4)CC3)cccc12` (racemic) the Activity (Rattus norvegicus [1]) was 5 - 9%, the Activity (Rattus norvegicus [2]) was 132 mmHg and the Activity (Rattus norvegicus [3]) was 114.3 mmHg. The Activity (Rattus norvegicus [4]) was 110.3 mmHg.
